Patent publication US9815796B2 (Merck Sharp & Dohme Corp., priority 2013, dated 2017)

target: human PDE2A1 (Homo sapiens (Human), UniProt O00408); assay: IMAP FP PDE selectivity panel, human PDE2A1; format: biochemical; details: Human PDE2, Lab B; read-out: Human PDE2 Ki (nM) - Lab B
Protocol: Selectivity for PDE2, as compared to other PDE families, was assessed using the IMAP® technology. Human PDE 10A2 enzyme was prepared from cytosolic fractions of transiently transfected HEK cells. All other PDE's were GST Tag human enzyme expressed in insect cells and were obtained from BPS Bioscience (San Diego, Calif.): PDE1A (Cat#60010), human PDE2A1 (Cat#60020), PDE3A (Cat#60030), PDE4A1A (Cat#60040), PDE5A1 (Cat#60050), PDE6C (Cat#60060), PDE7A (Cat#60070), PDE8A1 (Cat#60080), PDE9A2 (Cat#60090), PDE11A4 (Cat#60110).
Assays for PDE 1 through 11 were performed in parallel at room temperature in 384-well microtiter plates with an incubation volume of 20.2 μL. Solutions of test compounds were prepared in DMSO and serially diluted with DMSO to yield 30 μL of each of ten solutions differing by 3-fold in concentration, at 32 serial dilutions per plate. […] A Labcyte POD 810 (Labcyte, Sunnyvale, Calif.) was used to dispense 200 nL from each well of the titration plate to make eleven copies of the assay plate for each titration, one copy for each PDE enzyme. A solution of each enzyme (dilution from aliquots, sufficient to produce 20% substrate conversion) and a separate solution of FAM-labeled cAMP or FAM-labeled cGMP from Molecular Devices (Sunnyvale, Calif., product # R7506 or cGMP#R7508), at a final concentration of 50 nM were made in the assay buffer (10 mM Tris HCl, pH 7.2, 10 mM MgCl2, 0.05% NaN3 0.01% Tween-20, and 1 mM DTT). Note that the substrate for PDE2 is 50 nM FAM cAMP containing 1000 nM of cGMP. The enzyme and the substrate were then added to the assay plates in two consecutive additions of 10 μL and then shaken to mix. The reaction was allowed to proceed at room temperature for 60 minutes. A binding solution was then made from the kit components, comprised of 80% Solution A, 20% Solution B and binding reagent at a volume of 1/600 the total binding solution. The enzymatic reaction was stopped by addition of 60 μL of the binding solution to each well of the assay plate. The plates were sealed and shaken for 10 seconds. The plates were incubated at room temperature for one hour, then the parallel and perpendicular fluorescence was measured using a Tecan Genios Pro plate reader (Tecan, Switzerland). The apparent inhibition constants for the compounds against all 11 PDE's was determined from the parallel and perpendicular fluorescent readings as described for PDE10 FP assay using the following apparent KM values for each enzyme and substrate combination: PDE1A (FAM cGMP) 70 nM, human PDE2A1 (FAM cAMP) 10,000 nM, PDE3A (FAM cAMP) 50 nM, PDE4A1A (FAM cAMP) 1500 nM, PDE5A1 (FAM cGMP) 400 nM, PDE6C (FAM cGMP) 700 nM, PDE7A (FAM cAMP) 150 nM, PDE8A1 (FAM cAMP) 50 nM, PDE9A2 (FAM cGMP) 60 nM, PDE10A2 (FAM cAMP) 150 nM, PDE11A4 (FAM cAMP) 1000 nM. The intrinsic PDE2 inhibitory activity of a compound which may be used in accordance with the present invention may be determined by these assays.

Chain of human PDE2A1 (O00408 other isoform, or with tags, fused parts or gaps): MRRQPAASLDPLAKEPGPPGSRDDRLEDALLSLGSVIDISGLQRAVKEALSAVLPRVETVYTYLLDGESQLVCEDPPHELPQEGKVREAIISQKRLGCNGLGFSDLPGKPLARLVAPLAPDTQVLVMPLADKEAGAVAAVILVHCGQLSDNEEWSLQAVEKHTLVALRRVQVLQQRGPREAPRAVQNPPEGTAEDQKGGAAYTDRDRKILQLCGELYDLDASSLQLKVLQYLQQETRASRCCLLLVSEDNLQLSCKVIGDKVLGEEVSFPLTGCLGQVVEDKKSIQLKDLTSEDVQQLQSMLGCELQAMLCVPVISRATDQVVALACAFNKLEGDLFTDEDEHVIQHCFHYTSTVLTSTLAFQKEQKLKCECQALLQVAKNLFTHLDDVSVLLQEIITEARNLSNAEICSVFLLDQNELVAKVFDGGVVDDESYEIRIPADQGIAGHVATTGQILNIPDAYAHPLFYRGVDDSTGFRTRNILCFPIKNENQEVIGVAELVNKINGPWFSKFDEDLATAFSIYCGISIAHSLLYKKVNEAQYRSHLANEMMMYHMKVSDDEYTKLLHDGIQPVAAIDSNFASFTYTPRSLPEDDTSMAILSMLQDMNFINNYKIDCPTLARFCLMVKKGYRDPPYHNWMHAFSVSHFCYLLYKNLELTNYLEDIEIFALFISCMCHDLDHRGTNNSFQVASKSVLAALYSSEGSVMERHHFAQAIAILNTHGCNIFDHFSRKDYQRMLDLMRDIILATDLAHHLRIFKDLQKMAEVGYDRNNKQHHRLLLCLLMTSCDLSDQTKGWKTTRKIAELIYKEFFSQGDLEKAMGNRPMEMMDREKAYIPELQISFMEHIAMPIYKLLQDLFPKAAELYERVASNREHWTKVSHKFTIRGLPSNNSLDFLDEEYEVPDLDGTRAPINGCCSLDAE

| Compound | Ki [nM] |
| --- | --- |
| Cc1nc(C(=O)NC(C)c2ccc(C3(C(F)(F)F)CC3)cc2)cc(=O)[nH]1 (single isomer, unassigned) [Example 687, (R)- or (S)-2-methyl-6-oxo-N-(1-(4-(1-(trifluoromethyl)cyclopropyl)phenyl)-ethyl)-1,6-dihydropyrimidine-4-carboxamide] | 108 |
| O=C(N[C@@H](c1ccc(C2CC2)c(F)c1)C1CC1)c1cc(=O)[nH]c(-c2ncccn2)n1 [Example 581, N-[(R)-cyclopropyl(4-cyclopropyl-3-fluorophenyl)methyl]-6-oxo-1,6-dihydro-2,2′-bipyrimidine-4-carboxamide] | 13 |
| CCC(C)(NC(=O)c1cc(=O)[nH]c(C)n1)c1ccc(C(F)(F)F)cc1F (single isomer, unassigned) [Example 718, (S)- or (R)-N-(2-(2-fluoro-4-(trifluoromethyl)phenyl)butan-2-yl)-2-methyl-6-oxo-1,6-dihydropyrimidine-4-carboxamide] | 39 |
| COc1cc(C(F)(F)F)ccc1C(C)(C)NC(=O)c1cc(=O)[nH]c(-c2ncccn2)n1 [Example 572, N-{1-[2-methoxy-4-(trifluoromethyl)phenyl]-1-methylethyl}-6-oxo-1,6-dihydro-2,2′-bipyrimidine-4-carboxamide] | 741 |
| CC(NC(=O)c1cc(=O)[nH]c(-c2ncccn2)n1)c1ccc(C(C)(C)C(F)(F)F)cc1 (single isomer, unassigned) [Example 701, (R)- or (S)-6-oxo-N-(1-(4-(1,1,1-trifluoro-2-methylpropan-2-yl)phenyl)ethyl)-1,6-dihydro-[2,2′-bipyrimidine]-4-carboxamide] | 127 |
| O=C(N[C@@H]1CCCc2cc(C(F)(F)F)ccc21)c1cc(=O)[nH]c(-c2ccccc2)n1 [Example 552, 6-oxo-2-phenyl-N-[(1R)-6-(trifluoromethyl)-1,2,3,4-tetrahydronaphthalen-1-yl]-1,6-dihydropyrimidine-4-carboxamide] | 96 |
| Cc1nc(C(=O)NC2(c3ccc(OC(F)F)cc3)CC2)cc(=O)[nH]1 [Example 628, N-{1-[4-(difluoromethoxy)phenyl]cyclopropyl}-2-methyl-6-oxo-1,6-dihydropyrimidine-4-carboxamide] | 87 |
| CC(C)(C)C(NC(=O)c1cc(=O)[nH]c(-c2ncco2)n1)c1ccc(C(F)(F)F)cc1 (single isomer, unassigned) [Example 683, (S)- or (R)-N-(2,2-dimethyl-1-(4-(trifluoromethyl)phenyl)propyl)-2-(oxazol-2-yl)-6-oxo-1,6-dihydropyrimidine-4-carboxamide] | > 2960 |
| O=C(N[C@@H](c1ccc(OC(F)F)cc1)C1CC1)c1cc(=O)[nH]c(-c2ncccn2)n1 [Example 559, N-{(R)-cyclopropyl[4-(difluoromethoxy)phenyl]methyl}-6-oxo-1,6-dihydro-2,2′-bipyrimidine-4-carboxamide] | 128 |
| CC(NC(=O)c1cc(=O)[nH]c(-c2ncccn2)n1)c1ccc(C2(C(F)(F)F)CC2)cc1 (single isomer, unassigned) [Example 692, (S)- or (R)-6-oxo-2-(pyrimidin-2-yl)-N-(1-(4-(1-(trifluoromethyl)cyclopropyl)phenyl)-ethyl)-1,6-dihydropyrimidine-4-carboxamide] | > 2960 |
| COc1cc(C(F)(F)F)ccc1C(C)(C)NC(=O)c1cc(=O)[nH]c(C)n1 [Example 594, N-{1-[2-methoxy-4-(trifluoromethyl)phenyl]-1-methylethyl}-2-methyl-6-oxo-1,6-dihydropyrimidine-4-carboxamide] | 120 |
| Cc1nc(C(=O)N[C@@H](c2ccc(C(F)F)cc2)C(C)C)cc(=O)[nH]1 [Example 648, N-{(1R)-1-[4-(difluoromethyl)phenyl]-2-methylpropyl}-2-methyl-6-oxo-1,6-dihydropyrimidine-4-carboxamide] | 34 |
| Cc1nc(C(=O)NC2(c3ccc(C(F)F)cc3)CC2)cc(=O)[nH]1 [Example 660, N-{1-[4-(difluoromethyl)phenyl]cyclopropyl}-2-methyl-6-oxo-1,6-dihydropyrimidine-4-carboxamide] | 54 |
| CCc1nc(C(=O)N[C@H](C)c2ccc(S(F)(F)(F)(F)F)cc2)cc(=O)[nH]1 [Example 599, 2-ethyl-6-oxo-N-{(1R)-1-[4-(pentafluoro-λ^6-sulfanyl)phenyl]ethyl}-1,6-dihydropyrimidine-4-carboxamide] | 10 |
| Cc1nc(C(=O)N[C@@H](c2ccc3c(c2)OC(F)(F)O3)C2CC2)cc(=O)[nH]1 [Example 609, N-[(R)-cyclopropyl(2,2-difluoro-1,3-benzodioxol-5-yl)methyl]-2-methyl-6-oxo-1,6-dihydropyrimidine-4-carboxamide] | 94 |

The remaining compounds from weak to strong by Ki, led by results:

| Ki [nM] | Compound |
| --- | --- |
| 10 | O=C(NC1(c2ccc(S(F)(F)(F)(F)F)cc2)CC1)c1cc(=O)[nH]c(-c2ccccc2)n1 [Example 553, 6-oxo-N-{1-[4-(pentafluoro-λ^6-sulfanyl)phenyl]cyclopropyl}-2-phenyl-1,6-dihydropyrimidine-4-carboxamide] |
| 8.2 | CC(C)(C)[C@@H](NC(=O)c1cc(=O)[nH]c(-c2ncccn2)n1)c1ccc(OC(F)(F)F)c(F)c1 [Example 554, N-{(1R)-1-[3-fluoro-4-(trifluoromethoxy)phenyl]-2,2-dimethylpropyl}-6-oxo-1,6-dihydro-2,2′-bipyrimidine-4-carboxamide] |
| 7 | Cc1nc(C(=O)NC2(c3ccc(C(F)(F)F)cc3)CC2(C)C)cc(=O)[nH]1 (stereo not shown) [Example 681, N-(2,2-dimethyl-1-(4-(trifluoromethyl)phenyl)cyclopropyl)-2-methyl-6-oxo-1,6-dihydropyrimidine-4-carboxamide] |
| 7 | CC(C)(C)[C@@H](NC(=O)c1cc(=O)[nH]c(-c2ncccn2)n1)c1ccc(C(F)(F)F)cc1F [Example 565, N-{(1R)-1-[2-fluoro-4-(trifluoromethyl)phenyl]-2,2-dimethylpropyl}-6-oxo-1,6-dihydro-2,2′-bipyrimidine-4-carboxamide] |
| 4.8 | C[C@](CO)(NC(=O)c1cc(=O)[nH]c(-c2ccccc2)n1)c1ccc(C(F)(F)F)cc1 [Example 642, N-{(1S)-2-hydroxy-1-methyl-1-[4-(trifluoromethyl)phenyl]ethyl}-6-oxo-2-phenyl-1,6-dihydropyrimidine-4-carboxamide] |
| 4.5 | CC1([C@@H](NC(=O)c2cc(=O)[nH]c(-c3ccccc3)n2)c2ccc(OC(F)F)cc2)CC1 [Example 548, N-[(R)-[4-(difluoromethoxy)phenyl](1-methylcyclopropyl)methyl]-6-oxo-2-phenyl-1,6-dihydropyrimidine-4-carboxamide] |
| 4.5 | CC(C)(C)[C@@H](NC(=O)c1cc(=O)[nH]c(-c2ncccn2)n1)c1ccc(SC(F)(F)F)cc1 [Example 555, N-[(1R)-2,2-dimethyl-1-{4-[(trifluoromethyl)sulfanyl]phenyl}propyl]-6-oxo-1,6-dihydro-2,2′-bipyrimidine-4-carboxamide] |
| 3.8 | CC1(c2ccc(C(NC(=O)c3cc(=O)[nH]c(-c4ccccc4)n3)C(C)(C)C)cc2F)CC1 (single isomer, unassigned) [Example 715, (R)- or (S)-N-(1-(3-fluoro-4-(1-methylcyclopropyl)phenyl)-2,2-dimethylpropyl)-6-oxo-2-phenyl-1,6-dihydropyrimidine-4-carboxamide] |
| 3.7 | CCc1nc(C(=O)N[C@H](C)c2ccc(OC(F)(F)F)c(F)c2)cc(=O)[nH]1 [Example 598, 2-ethyl-N-{(1R)-1-[3-fluoro-4-(trifluoromethoxy)phenyl]ethyl}-6-oxo-1,6-dihydropyrimidine-4-carboxamide] |
| 0.51 | CC(C)(C)[C@@H](NC(=O)c1cc(=O)[nH]c(-c2ccccc2)n1)c1ccc(C2CC2)cc1 [Example 536, N-[(1R)-1-(4-cyclopropylphenyl)-2,2-dimethylpropyl]-6-oxo-2-phenyl-1,6-dihydropyrimidine-4-carboxamide] |
